Results reported in US4581359A, “Pharmacological treatments with N-7-substituted derivatives of theophylline” (priority 1984, dated 1986).
“And” between values parts separate entries of the source, which are not always exact repeats. Identical values can stand only once. Like-named read-outs stand apart in the source and are kept apart here.

Key:
[1] = Dyphylline intravenous infusion in rabbits: blood concentration, pharmacokinetics, toxicity (Example 1); type: in vivo, female New Zealand White rabbits
Source text: A high-pressure liquid chromatographic (HPLC) system consisted of a delivery pump (M-6000A, Waters Associates, Milford, Mass.), sample injection apparatus (Model U6K, Waters Associates, Milford, Mass.), 30-cm reverse phase column (μBondapak C18, Waters Associates, Milford, Mass.), UV detector (Model 440, Waters Associates, Milford, Mass.) with wavelength of 280 nm and a dual pen recorder (Soltec Co., Encino, Calif.) which were used at ambient temperature.
Both dyphylline and theophylline stock standard solutions were prepared to contain 10, 40, 80, 120, 150, 320 or 640 mg of each in 50 ml of distilled water. 20 μl of each was then added into 0.38 ml of rabbit blood to prepare working blood standard solutions.
The internal standard used was β-hydroxypropyl theophylline (Aldrich Chemical Co., Inc., Milwaukee, Wis.) in acetonitrile which was prepared in a 500 ml volumetric flask as a stock solution, and kept tightly sealed except during use throughout the experiment. Internal standard solution (0.4 ml) was added to an equal volume (0.4 ml) of sample to precipitate protein. After centrifuging for 10 minutes, the supernatant was injected into the HPLC. The HPLC operating conditions included a mobile phase composed of acetonitrile (6 percent V/V) in distilled water and a flow rate of 2.0 ml/min.
Typical log blood dyphylline concentration versus time plots, for each of the three rabbits following zero-order infusion of 250 mg over fifteen minutes are presented in FIG. 1. […] (1975). Parameters obtained from linear least square fitting of the terminal data to a one-compartment model appear in Table I. The fitted line of the data can be seen in FIG. 1.

in vivo = settings: rabbit
Experimental: All experiments of this example were performed using female New Zealand White rabbits. These rabbits (2.4-3.6 kg) were housed in a controlled environment and allowed free access to water and food.
Before dosing with drug the rabbit ear hair was clipped and treated with hair remover lotion (sold under the trademark NAIR, Carter-Wallace, Inc., New York, N.Y.), a catheter (Quick-Cath, 20 Ga, Travenol Laboratories, Inc., Deerfield, Ill.) and sterile intermittent infusion plug were then inserted in the rabbit's ear vein for infusion. […] For each separate administration of theophylline, a suitable amount of aminophylline (40 mg/kg) was dissolved in distilled water to make 10 ml injectable solution which was administered into a rabbit's ear vein as a continuous infusion over a period of 15 minutes.
Blood samples were collected from an ear vein (in the opposite ear from the infusion) at predetermined time intervals. Before collecting each sample, the rabbit ear was treated topically with xylene to dilate the ear vein for convenient sample collection. Immediately after each blood sample was drawn, 0.4 ml of blood was transfered to the centrifuge tube and 0.4 ml of acetronitrile with appropriate internal standard was added to precipitate the protein and extract drug components. After vortexing well, the blood acetonitrile mixture was centrifuged at 3000×G for ten minutes, and 10 μl of supernatent solution was then injected into the HPLC.
The post infusion data of theophylline were fitted to a two-compartment open model using the same procedure as described above. Although samples were collected while infusion of dyphylline was continuing, only post infusion data were used for dyphylline pharmacokinetic analysis.

clinical = type: in vivo; settings: for Cmax: iv, 1000 mg, after 20-minute intravenous infusion of 1000 mg
Experimental: To confirm the data shown in Table XI, dyphylline, 1000 mg, was administered to twelve healthy male volunteers as a zero-order infusion (50 mg/min) or as three conventional tablets (2×400 mg, 1×200 mg).

[2] = in vivo
Experimental: One horse was administered acetyl promazine thiamyol sodium, quaifensin, and halothane to produce general anesthesia. Dyphylline (20 mg/kg) was given as an intravenous bolus injection in less than 15 seconds and aminophylline (10 mg/kg) was given as an infusion over about 20 minutes. Plasma and cerebral spinal fluid were collected and assayed by high pressure liquid chromatography for both dyphylline and theophylline.

[3] = Literature: pharmacokinetics of dyphylline and related derivatives in humans; settings: human, in vivo; for Vd/F: po, analysis of Gisclon oral data
[4] = rabbit, blood, iv, 250 mg, 250.0 mg/rabbit over 15 minutes, alone, rabbits 1-3, mean

Which “Ccut, blood concentration at the time the infusion was stopped” value ([1]; 250.0 mg/rabbit zero-order infusion over 15 minutes, alone, rabbits 1-3, mean, 15 min) does the source give for Cn1c(=O)c2c(ncn2CC(O)CO)n(C)c1=O (centres unmarked) [dyphylline, dihydroxypropyl theophylline] here?
Its value is 81.82 µg/mL and 112.5 µg/mL and 91.70 µg/mL.

What about the signs of toxicity ([1]; blood concentrations about 80 to 112 mcg/ml) of the same molecule?
Its signs of toxicity is “did not exhibit any signs of toxicity”.

What about the half-life [1, 4] of the same molecule?
The half-life was 35.6 min.

What about the k el [1, 4] of the same molecule?
Its k el is 0.000325 s⁻¹.

And the Vd ([1]; rabbit, blood, iv, 250 mg, 250.0 mg/rabbit over 15 minutes, alone, rabbits 1-3, mean, read-out: Vd1)?
Its Vd is 0.895 L/kg.

What about the concentration at 0.25 h ([1]; rabbit, blood, iv, 250 mg, 250.0 mg/rabbit zero-order infusion over 15 minutes, alone, rabbits 1-3, mean, read-out: Ccut, blood concentration at the time the infusion was stopped) of the same molecule?
The concentration at 0.25 h was 80.8 µg/mL.

And the concentration at 0.25 h ([1]; rabbit, blood, iv, 250 mg, 15 minutes, three rabbits, read-out: blood concentration when the infusion was stopped)?
The concentration at 0.25 h was 80 to 112 µg/mL.

And the Vd ([1]; rabbit, blood, iv, 250 mg, Table I, read-out: average apparent volume of distribution of dyphylline administered alone)?
Its Vd is 0.82 L/kg.

And the “effect of dyphylline on half-life of theophylline” value (in vivo)?
The value was “does not appear to alter the half-life of theophylline”.

And the “plasma concentration of dyphylline not toxic in the presence of about 100 mcg/ml theophylline” value (in vivo)?
Its value is “about 600 mcg/ml”.

What about the Vd (in vivo; iv, 666.7 mg/kg, average apparent volume of distribution of dyphylline administered with theophylline) of the same molecule?
The Vd was 0.41 L/kg.

What about the drug related toxicities (clinical; human, in vivo) of the same molecule?
Its drug related toxicities is “No subjects reported any drug related toxicities”.

What about the Cmax (clinical; human, plasma, read-out: Maximum plasma concentration, average) of the same molecule?
The Cmax was 30.1 µg/mL.

What about the Cmax (clinical; human, plasma, read-out: Maximum plasma concentration, range) of the same molecule?
The Cmax was 18.4 to 46.8 µg/mL.

And the Vd (clinical; human, plasma, 1000 mg IV, twelve volunteers, standard deviation 0.08, read-out: average total volume of distribution, IV)?
Its Vd is 0.78 L/kg.

And the “difference between predose and peak drug effects on blood pressure and heart rate” value (clinical; α=0.05 level)?
The value was “not statistically significant”.

And the “penetration into cerebral spinal fluid” value [2]?
The value was “penetrate into cerebral spinal fluid”.

And the Vd ([3]; from Simons et al., read-out: Vd, range over dosage forms)?
Its Vd is 0.58 to 0.98 L/kg.

What about the Vd/F ([3]; 77.0 kg, complete bioavailability, read-out: central compartment volume) of the same molecule?
The Vd/F was ~52 L.

And the Vd/F ([3]; 77.0 kg, complete bioavailability, read-out: total volume of distribution)?
Its Vd/F is ~67 L.

And the Vd/F ([3]; 84 percent bioavailability, read-out: Vc)?
Its Vd/F is ~0.6 L/kg.

What about the Vd/F ([3]; 84 percent bioavailability, read-out: Vd) of the same molecule?
The Vd/F was ~0.73 L/kg.

And the Vd/F ([3]; bioavailability 84 percent, read-out: central compartment volume)?
The Vd/F was ~44 L.

What about the Vd/F ([3]; bioavailability 84 percent, read-out: total volume of distribution) of the same molecule?
Its Vd/F is ~56 L.

What about the Vd/F ([3]; total bioavailability, read-out: Vc) of the same molecule?
The Vd/F was ~0.68 L/kg.

And the Vd/F ([3]; total bioavailability, read-out: Vd total)?
The Vd/F was ~0.87 L/kg.
